# Test results as given in patent publication US7853319B2, “Method and system for detecting electrophysiological changes in pre-cancerous and cancerous tissue and epithelium” (Epi-Sci, LLC, priority 2005, dated 2010).
# Read-outs that look alike come from different tables or passages of the source.
# Tests used:
# [1] = tested on: apical K+ channels of human colonic epithelium (normal colon); assay: Short circuit current of colonic mucosa ex vivo in Ussing chambers, normal colon (controls)
# Protocol: (§1) The potassium permeability of the apical membrane of human colonic mucosa (P^Ka) was determined in surgical specimens of controls and grossly normal-appearing mucosa obtained 10-30 cm proximal to colorectal adenocarcinomas. The mucosa was mounted in Ussing chambers and the basolateral membrane resistance and voltage were nullified by elevating the K^+ in the serosal bathing solution. The apical sodium (Na^+) conductance was blocked with 0.1 mM amiloride. This protocol reduces the equivalent circuit model of the epithelium to an apical membrane conductance and electromotive force in parallel with the paracellular pathway as has been verified by microelectrode studies. […] In cancer-bearing colon the reduction in Isc is to −65 μA/cm^2. The serosal bath was remained constant at 125 mM [K].
# (§2) Because the voltage across the apical membrane is zero under these conditions and the paracellular pathway is nonselective, the P^Ka (apical potassium permeability) can be calculated using the Fick equation i.e., Isc=F·P^Ka·Δ[K] where F is the Faraday constant and Δ[K] is the concentration difference for K^+ across the epithelium. […] P^Ka could also be calculated for the change in Isc when the K^+ channels were blocked with TEA, assuming complete block.
# [2] = tested on: apical K+ channels of premalignant human mucosa (distal colon); assay: Short circuit current of colonic mucosa ex vivo in Ussing chambers, premalignant mucosa; conditions: assuming complete block
# Protocol: as §1, §2
# distal colon = conditions: administered over the same period (four weeks) as carcinogen; cited from earlier work
# [3] = tested on: histologically "normal" colonic epithelium; conditions: cited from earlier work
# [4] = tested on: benign breast epithelial cells; assay: Cell membrane potential (ψ) with potentiometric fluorescent probe, benign cells; assay type: cell-based, human; conditions: estradiol added to the culture media; approximately −50 mV in its absence
# Protocol: (§3) Measurements were made using a potentiometric fluorescent probe, and ratiometric measurements, which are calibrated using valinomycin and [K^+]-gradients. ψs were measured in the presence (closed circles) and absence (open circles) of estradiol (the active metabolite of estrogen). Each symbol is the mean measurement. The upper error bar is the standard error of the mean, and the lower error bar is the 95% confidence level for the observations. The addition of estrogen to cultured breast epithelial cells results in an instantaneous increase in ψ (data not shown) as well as the transepithelial potential see FIG. 8. Transepithelial potential (VT) of an epithelium is the sum of the apical (luminal) cell membrane potential (VA) and the basolateral (abluminal) cell membrane potential (VBL). Therefore VT=VA+VBL (changes in VA and/or VBL will therefore alter VT or transepithelial potential). […] Malignant and transformed cells have a ψ of between −31 and −35 mV in the absence of estradiol and […] when estradiol is present in the culture medium.
# [5] = tested on: benign human breast epithelial cells; assay: Transepithelial potential of monolayers in modified Ussing chambers, benign epithelia; assay type: cell-based; conditions: then remains persistently elevated
# Protocol: (§4) It should be noted that the instantaneous response, illustrated in FIG. 8, is greater in malignant epithelia, whereas the chronic or sustained exposure to estradiol results in a lower increase in TEP (transepithelial electropotential) in malignant cells. Concurrent measurement of surface electropotential and impedance allow the more accurate diagnosis of cancer. […] The cells were grown as monolayers on Millipore filters and grew to confluence in 7 to 10 days. The epithelia were then mounted in modified Ussing chambers and the TEP was measured using a voltage clamp. Increasing doses of estradiol between 0 and 0.8 μM were added (x-axis). The transepithelial potential was measured after each addition and the TEP was measured (y-axis). The different dose response is apparent for benign and malignant epithelia. Malignant epithelia have a lower TEP but undergo an instantaneous increase in TEP of approximately 9 mV (becomes more electronegative and reaches a level of <−6 mV) after exposure to only 0.1 μM estradiol and then depolarize to approximately −2 mV with increasing doses of estradiol up to about 0.5 μM.
# [6] = tested on: malignant human breast epithelial cells; assay: Transepithelial potential of monolayers in modified Ussing chambers, malignant epithelia; assay type: cell-based
# Protocol: as §4
# breast tissue = assay: Electrophysiological response of breast tissue after sublingual 17-β-estradiol; assay type: in vivo, human; conditions: sublingual administration, 4 mg
# Protocol: In one method of the present invention, estradiol is introduced directly into the duct or systemically following sublingual administration of 17-β-estradiol (4 mg). This agent produces a rapid response, which peaks at approximately 20 minutes. The electrophysiological response depends, in part, on the stage of the patient's menstrual cycle, as well as the condition of the breast tissue. Specifically, in normal breast tissue, a rise in TEP will occur during the follicular (or early) phase. In pre-cancerous or cancerous tissue, this response is abrogated.
# [7] = tested on: Malignant and transformed cells (human breast epithelial cells); assay: Cell membrane potential (ψ) with potentiometric fluorescent probe, malignant and transformed cells; assay type: cell-based; conditions: estradiol present in the culture medium; −31 to −35 mV in its absence
# Protocol: as §3
# breast epithelium = conditions: 20 μM luminal amiloride, cited from earlier work
# [8] = after exposure to 0.1 μM estradiol
smiles,measurement,setting,value
CC[N+](CC)(CC)CC [TEA],effect on short circuit current (Isc),"[1]; 30 mM mucosal TEA, 0.1 mM amiloride, elevated serosal K+, normal colon",abrupt increase in Isc
same,apical K+ permeability (P^Ka) calculated from change in Isc on TEA block,"[1]; controls, assuming complete block",6.4 ×10⁻⁶ cm/s
same,apical K+ permeability (P^Ka) calculated from change in Isc on TEA block,[2],3.8 ×10⁻⁶ cm/s
O=c1[nH]cc(F)c(=O)[nH]1 [5-fluorouracil],effect on transepithelial potential (VT),distal colon,did not cause a reduction in VT
"CNNC [DMH, 1,2 dimethylhydrazine]",VA (apical membrane voltage),"[3]; after 6 weeks of DMH treatment, from −74.9 mV",−61.4 mV
same,VA (apical membrane voltage),[3]; by 20 weeks of DMH treatment,−34 mV
"C[C@]12CC[C@@H]3c4ccc(O)cc4CC[C@H]3[C@@H]1CC[C@@H]2O [estradiol, 17-β-estradiol]",cell membrane potential (ψ),[4],~−70 mV
same,estradiol dose at which TEP response peaks,[5],~0.3 µM
same,TEP level reached,[6]; [8],< −6 mV
same,instantaneous increase in TEP,[6]; [8],approximately 9 mV
same,TEP after depolarization with increasing doses,[6]; increasing doses of estradiol up to about 0.5 μM,approximately −2 mV
same,time to peak of electrophysiological response,breast tissue,approximately 20 minutes
same,cell membrane potential (ψ),[7],approximately 50 mV
N=C(N)NC(=O)c1nc(Cl)c(N)nc1N [amiloride],depolarization of the transepithelial potential (change),breast epithelium; baseline −5.9±0.5 mV (mean±SEM),+3.1±0.5 mV
same,increase in transepithelial resistance,breast epithelium,17%
